O=c1c2ccccc2nc2n1CCc1c-2[nH]c2ccccc12
solubility (mole fraction)
Conditions	283.15 K	288.15 K	293.15 K	298.15 K	303.15 K	308.15 K	313.15 K	318.15 K	323.15 K
in acetone	0.00069	0.00079	0.000929	0.00106	0.00122	0.00139	0.00158	0.0018	0.00205
in ethanol	0.000132	0.00016	0.000191	0.000229	0.000271	0.00032	0.000375	0.00044	0.000509
in isopropanol	7.46e-05	9.8e-05	0.000124	0.00016	0.000201	0.000257	0.000318	0.000396	0.000488
in methanol	6.1e-05	7.33e-05	8.79e-05	0.000105	0.000125	0.000148	0.000172	0.000201	0.000234
in water	1.45e-09	2.02e-09	2.84e-09	3.97e-09	5.49e-09	7.6e-09	1.04e-08	1.38e-08	1.85e-08
